Measured values reported in ChEMBL document CHEMBL4422621, “Novel chalcone and flavone derivatives as selective and dual inhibitors of the transport proteins ABCB1 and ABCG2” (Eur J Med Chem, 2019).

Assays:
[1] = target: T1, Broad substrate specificity ATP-binding cassette transporter ABCG2 (Homo sapiens, UniProt Q9UNQ0); experiment: Inhibition of ABCG2 (unknown origin) expressed in MDCK II BCRP cells assessed as effect on pheophorbide A accumulation after 120 mins by flow cytometric analysis; assay type: cell-based
T1 sequence (Q9UNQ0 whole entry): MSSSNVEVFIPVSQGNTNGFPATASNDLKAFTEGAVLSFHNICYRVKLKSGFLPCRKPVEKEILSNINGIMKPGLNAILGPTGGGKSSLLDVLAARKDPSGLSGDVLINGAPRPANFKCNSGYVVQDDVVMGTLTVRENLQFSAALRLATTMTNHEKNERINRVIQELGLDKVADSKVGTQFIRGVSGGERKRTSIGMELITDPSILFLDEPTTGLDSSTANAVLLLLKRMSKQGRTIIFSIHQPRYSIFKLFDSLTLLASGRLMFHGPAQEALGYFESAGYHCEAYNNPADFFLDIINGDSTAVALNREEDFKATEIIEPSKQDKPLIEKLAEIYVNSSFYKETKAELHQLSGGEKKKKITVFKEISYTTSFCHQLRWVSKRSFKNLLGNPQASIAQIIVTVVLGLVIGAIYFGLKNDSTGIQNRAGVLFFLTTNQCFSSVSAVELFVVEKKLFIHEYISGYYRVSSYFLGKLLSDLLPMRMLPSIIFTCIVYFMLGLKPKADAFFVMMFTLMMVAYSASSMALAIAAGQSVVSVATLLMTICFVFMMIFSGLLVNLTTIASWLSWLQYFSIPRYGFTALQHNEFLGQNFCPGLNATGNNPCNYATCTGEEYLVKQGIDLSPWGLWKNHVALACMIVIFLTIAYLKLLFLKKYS

[2] = target: T2, ABCG2 (BCRP) (Homo sapiens, UniProt Q9UNQ0); experiment: (§1) Inhibition of ABCG2 (unknown origin) expressed in MDCK II BCRP cells assessed as effect on heophorbide A accumulation at 5 to 10 uM after 120 mins by flow cytometric analysis relative to control; assay type: cell-based; details: MDCK II BCRP cells expressing ABCG2, probe pheophorbide A
T2 sequence (Q9UNQ0 whole entry): T1 sequence (Q9UNQ0 whole entry)

[3] = target: T3, ATP-dependent translocase ABCB1 (Homo sapiens, UniProt P08183); experiment: (§2) Inhibition of ABCB1 in human A2780/ADR cells preincubated for 30 mins followed by calcein AM addition and measured every 60 secs for 1 hr by fluorescence assay; assay type: cell-based
[4] = Growth inhibition of human A2780 cells after 72 hrs by MTT assay; assay type: cell-based
[5] = Growth inhibition of human A2780/ADR cells after 72 hrs by MTT assay; assay type: cell-based
[6] = Growth inhibition of MDCK2 cells after 72 hrs by MTT assay; assay type: cell-based, Canis lupus familiaris, MDCK-II; details: dog
[7] = Growth inhibition of MDCK2 cells expressing BCRP (unknown origin) after 72 hrs by MTT assay; assay type: ADME, cell-based, Canis lupus familiaris, MDCK-II; details: dog
[8] = system: ABCB1 (P-gp); experiment: Therapeutic index, ratio of GI50 for human A2780/ADR cells to EC50 for ABCB1 in human A2780/ADR cells; assay type: toxicity, cell-based
[9] = system: ABCG2 (BCRP); experiment: Therapeutic index, ratio of GI50 for MDCK2 cells expressing BCRP (unknown origin) to EC50 for ABCG2 (unknown origin) co-expressed in MDCK2 cells expressing BCRP (unknown origin); assay type: toxicity, cell-based; details: dog
[10] = target: T3, ATP-dependent translocase ABCB1; experiment: Inhibition of ABCB1 in human A2780/ADR cells at 5 to 10 uM preincubated for 30 mins followed by calcein AM addition and measured every 60 secs for 1 hr by fluorescence assay; assay type: cell-based
[11] = target: T4, Multidrug resistance-associated protein 1 (Homo sapiens, UniProt P33527); experiment: Inhibition of ABCC1 in human […] cells at 5 to 10 uM preincubated for 30 mins followed by calcein AM addition and measured every 60 secs for 1 hr by fluorescence assay; assay type: cell-based
[12] = target: ABCB1 (P-gp) (Homo sapiens, UniProt P08183); experiment: as §2; assay type: cell-based; details: human, A2780/ADR cells, probe calcein AM; read-out: Imax
[13] = target: T1, Broad substrate specificity ATP-binding cassette transporter ABCG2; experiment: as §1; assay type: cell-based; details: 2 h
[14] = target: T4, Multidrug resistance-associated protein 1; experiment: Inhibition of ABCC1 in human […] cells preincubated for 30 mins followed by calcein AM addition and measured every 60 secs for 1 hr by fluorescence assay; assay type: cell-based

T4 sequence (P33527 whole entry): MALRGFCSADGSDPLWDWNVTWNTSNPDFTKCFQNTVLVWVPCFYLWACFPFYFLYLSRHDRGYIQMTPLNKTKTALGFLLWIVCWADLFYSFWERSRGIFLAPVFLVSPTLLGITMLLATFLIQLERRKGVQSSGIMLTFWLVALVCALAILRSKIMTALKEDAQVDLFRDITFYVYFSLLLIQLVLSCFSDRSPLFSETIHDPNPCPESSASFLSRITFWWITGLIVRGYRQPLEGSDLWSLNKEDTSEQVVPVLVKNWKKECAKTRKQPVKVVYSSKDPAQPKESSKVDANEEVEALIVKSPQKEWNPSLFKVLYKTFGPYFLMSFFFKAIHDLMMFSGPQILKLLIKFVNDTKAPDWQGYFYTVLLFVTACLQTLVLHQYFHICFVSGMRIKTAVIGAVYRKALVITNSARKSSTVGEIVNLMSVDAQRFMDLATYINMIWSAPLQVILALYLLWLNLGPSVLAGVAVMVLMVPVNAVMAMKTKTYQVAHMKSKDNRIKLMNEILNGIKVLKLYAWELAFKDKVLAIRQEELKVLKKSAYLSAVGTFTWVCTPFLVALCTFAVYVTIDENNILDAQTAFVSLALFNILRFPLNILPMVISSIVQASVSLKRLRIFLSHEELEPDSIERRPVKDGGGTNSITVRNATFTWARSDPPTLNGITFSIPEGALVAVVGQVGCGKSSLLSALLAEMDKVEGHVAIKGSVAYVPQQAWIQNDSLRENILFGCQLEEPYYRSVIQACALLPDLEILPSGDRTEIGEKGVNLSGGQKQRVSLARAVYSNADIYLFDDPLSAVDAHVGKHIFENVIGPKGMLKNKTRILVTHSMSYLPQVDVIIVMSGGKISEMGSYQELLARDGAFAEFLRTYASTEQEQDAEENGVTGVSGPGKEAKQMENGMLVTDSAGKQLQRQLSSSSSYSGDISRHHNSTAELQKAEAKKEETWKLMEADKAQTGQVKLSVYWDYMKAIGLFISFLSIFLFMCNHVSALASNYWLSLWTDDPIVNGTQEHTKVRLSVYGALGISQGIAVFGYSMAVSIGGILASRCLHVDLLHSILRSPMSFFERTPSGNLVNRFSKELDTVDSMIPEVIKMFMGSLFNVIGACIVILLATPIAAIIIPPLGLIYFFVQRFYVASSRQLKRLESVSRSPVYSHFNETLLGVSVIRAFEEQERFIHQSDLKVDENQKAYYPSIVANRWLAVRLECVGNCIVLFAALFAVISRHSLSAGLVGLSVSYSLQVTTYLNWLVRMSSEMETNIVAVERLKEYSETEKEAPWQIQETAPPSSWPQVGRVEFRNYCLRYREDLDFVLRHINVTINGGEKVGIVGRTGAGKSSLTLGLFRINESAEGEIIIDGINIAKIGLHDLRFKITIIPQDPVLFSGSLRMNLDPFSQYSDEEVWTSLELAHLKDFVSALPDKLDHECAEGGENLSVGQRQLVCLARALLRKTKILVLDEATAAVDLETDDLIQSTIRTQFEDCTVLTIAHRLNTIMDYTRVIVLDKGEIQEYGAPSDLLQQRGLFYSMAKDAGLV
T3 sequence (P08183 whole entry): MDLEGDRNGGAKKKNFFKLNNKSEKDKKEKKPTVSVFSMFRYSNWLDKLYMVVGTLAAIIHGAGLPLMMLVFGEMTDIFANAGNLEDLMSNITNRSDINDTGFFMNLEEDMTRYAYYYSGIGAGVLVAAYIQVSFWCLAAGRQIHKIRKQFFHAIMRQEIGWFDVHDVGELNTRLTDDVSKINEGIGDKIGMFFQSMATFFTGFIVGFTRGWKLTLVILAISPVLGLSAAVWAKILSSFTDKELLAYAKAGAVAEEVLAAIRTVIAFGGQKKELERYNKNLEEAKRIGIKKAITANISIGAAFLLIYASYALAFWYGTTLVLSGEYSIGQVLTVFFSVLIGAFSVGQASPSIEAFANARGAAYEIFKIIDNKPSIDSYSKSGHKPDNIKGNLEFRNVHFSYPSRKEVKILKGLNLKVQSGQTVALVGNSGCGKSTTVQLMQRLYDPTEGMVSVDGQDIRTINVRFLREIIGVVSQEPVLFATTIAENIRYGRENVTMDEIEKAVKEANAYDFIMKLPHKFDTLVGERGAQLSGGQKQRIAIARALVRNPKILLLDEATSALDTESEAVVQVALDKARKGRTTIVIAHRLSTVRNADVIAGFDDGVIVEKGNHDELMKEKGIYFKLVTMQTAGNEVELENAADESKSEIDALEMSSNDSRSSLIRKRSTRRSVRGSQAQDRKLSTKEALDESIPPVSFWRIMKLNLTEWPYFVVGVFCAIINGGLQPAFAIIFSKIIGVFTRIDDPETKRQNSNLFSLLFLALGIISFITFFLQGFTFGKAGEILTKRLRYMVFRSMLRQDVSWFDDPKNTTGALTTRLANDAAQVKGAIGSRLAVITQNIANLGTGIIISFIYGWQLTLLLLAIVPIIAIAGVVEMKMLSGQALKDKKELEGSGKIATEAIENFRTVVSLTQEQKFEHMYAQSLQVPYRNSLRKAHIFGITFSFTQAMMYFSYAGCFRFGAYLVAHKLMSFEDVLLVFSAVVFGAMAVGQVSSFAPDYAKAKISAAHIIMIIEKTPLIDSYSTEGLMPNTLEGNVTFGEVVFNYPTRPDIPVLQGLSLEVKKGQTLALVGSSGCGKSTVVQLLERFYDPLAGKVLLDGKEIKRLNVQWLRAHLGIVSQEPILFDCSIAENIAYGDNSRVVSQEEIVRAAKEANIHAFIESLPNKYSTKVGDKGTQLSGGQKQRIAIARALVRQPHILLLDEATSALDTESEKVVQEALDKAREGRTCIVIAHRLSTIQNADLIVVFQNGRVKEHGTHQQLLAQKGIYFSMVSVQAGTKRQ
Chain of ABCB1 (P-gp) (Homo sapiens, UniProt P08183) (P08183 whole entry): as above

IC50 [1] [µM] | inhibition at 2 h [2] [%] | inhibition (INH) [10] | inhibition (INH) [11] | SMILES | GI50 at 72 h [6] [µM] | GI50 at 72 h [7] [µM] | selectivity ratio [9] | other results
3.75 | ≥ 25 | – | – | COc1ccc(-c2c(OCC(=O)Nc3cccc4ccccc34)oc3ccccc3c2=O)cc1OC | > 100 | > 100 | > 26.7 | IC50 [3]: 5.43 µM; GI50 at 72 h [4]: 43.6 µM; GI50 at 72 h [5]: 45.3 µM; selectivity ratio [8]: 8.3
20 | ≥ 25 | Not Active | Not Active | O=C(/C=C/c1ccc(OCc2ccc(Cl)cc2)cc1)c1ccc(O)cc1 | – | – | – | –
4.28 | ≥ 25 | Not Active | Not Active | COc1cc(/C=C/C(=O)c2cccc(O)c2)cc(OC)c1OC | – | – | – | –
6.89 | ≥ 25 | – | – | COc1cc(/C=C/C(=O)c2ccc(OCC(=O)NCc3ccc4c(c3)OCO4)cc2)cc(OC)c1OC | 61.5 | 63.5 | 9.2 | –
5.09 | ≥ 25 | – | – | COc1ccc(-c2c(OCC(=O)Nc3cccc4ccccc34)oc3ccccc3c2=O)cc1 | > 100 | > 100 | > 19.6 | Emax at 1 h [12]: 51%; IC50 [3]: 1.41 µM
2.9 | ≥ 25 | – | – | O=C(COc1c(-c2ccccc2Cl)oc2ccccc2c1=O)Nc1ccc2c(c1)COC2=O | 67.6 | 56.3 | 19.4 | IC50 [3]: 5.01 µM; GI50 at 72 h [4]: 61.1 µM; GI50 at 72 h [5]: 69.2 µM; selectivity ratio [8]: 13.8
– | – | Not Active | Not Active | O=C(/C=C/c1ccco1)c1ccc(O)cc1 | – | – | – | inhibition (INH) [13]: Not Active
– | – | Not Active | Not Active | O=C(/C=C/c1ccc(OCc2ccc(Cl)cc2Cl)cc1)c1ccc(O)cc1 | – | – | – | inhibition (INH) [13]: Not Active
7.29 | ≥ 25 | Not Active | Not Active | CCCCOc1ccc(/C=C/C(=O)c2ccc(O)cc2)cc1 | – | – | – | –
1.97 | ≥ 25 | Not Active | Not Active | COc1cc(C(=O)/C=C/c2cc(OC)c(OC)c(OC)c2)ccc1O | 7.56 | 9.38 | 4.8 | –
6.44 | ≥ 25 | Not Active | Not Active | CCOc1ccc(/C=C/C(=O)c2ccc(O)cc2)cc1 | – | – | – | –
9.93 | ≥ 25 | – | – | COc1cc(/C=C/C(=O)c2cccc(OCC(=O)Nc3ccc4c(c3)COC4=O)c2)cc(OC)c1OC | – | – | – | IC50 [3]: 11.7 µM
3.58 | ≥ 25 | – | – | COc1cccc(/C=C/C(=O)c2ccc(OCC(=O)Nc3ccc(OC)c(OC)c3)cc2)c1 | 33.2 | 36.7 | 10.3 | –
6.11 | ≥ 25 | – | – | COc1ccc(NC(=O)COc2ccc(C(=O)/C=C/c3c(F)cccc3F)cc2)cc1OC | 36.2 | 36.6 | 6 | –
10.5 | ≥ 25 | Not Active | Not Active | O=C(/C=C/c1cccs1)c1ccccc1O | – | – | – | –
9.21 | ≥ 25 | Not Active | Not Active | O=C(/C=C/c1ccc(OCc2ccccc2)cc1)c1ccc(O)cc1 | – | – | – | –
3.37 | ≥ 25 | – | – | COc1ccc(NC(=O)COc2ccc(C(=O)/C=C/c3cc(OC)c(OC)c(OC)c3)cc2)cc1OC | 18.9 | 27.7 | 8.2 | IC50 [14]: 12.5 µM
– | – | – | – | COc1ccc(-c2oc3ccccc3c(=O)c2OCC(=O)Nc2ccc3c(c2)COC3=O)cc1 | – | – | – | inhibition (INH) [13]: Not Active
6.08 | ≥ 25 | – | – | O=C(COc1cccc(C(=O)/C=C/c2ccccc2)c1)Nc1ccc2c(c1)COC2=O | 11.5 | 16.6 | 2.7 | –
– | – | – | – | O=C(COc1ccc(/C=C/C(=O)c2ccc(F)cc2)cc1)Nc1ccc2c(c1)COC2=O | – | – | – | inhibition (INH) [13]: Not Active
– | – | – | – | O=C(COc1ccc(C(=O)/C=C/c2ccc(OCc3ccc(Cl)cc3Cl)cc2)cc1)Nc1ccc2c(c1)COC2=O | – | – | – | inhibition (INH) [13]: Not Active
7.22 | ≥ 25 | Not Active | Not Active | O=C(/C=C/c1c(F)cccc1F)c1ccc(O)cc1 | – | – | – | –
4.74 | ≥ 25 | Not Active | Not Active | CCCOc1ccc(/C=C/C(=O)c2ccc(O)cc2)cc1 | 31.1 | 28.5 | 6 | –
16.2 | ≥ 25 | Not Active | Not Active | O=C(/C=C/c1ccco1)c1ccccc1O | – | – | – | –
– | – | – | – | Cc1ccc(-c2c(OCC(=O)Nc3cccc4ccccc34)oc3ccccc3c2=O)cc1 | – | – | – | inhibition (INH) [13]: Not Active; IC50 [3]: 1.89 µM; GI50 at 72 h [4]: 68.7 µM; GI50 at 72 h [5]: 98.6 µM; selectivity ratio [8]: 52.2
4.91 | ≥ 25 | Not Active | Not Active | O=C(/C=C/c1ccccc1C(F)(F)F)c1ccc(O)cc1 | – | – | – | –
– | – | – | – | O=C(COc1c(-c2ccco2)oc2ccccc2c1=O)Nc1ccc2c(c1)COC2=O | – | – | – | inhibition (INH) [13]: Not Active
18.2 | ≥ 25 | Not Active | Not Active | O=C(/C=C/c1cccs1)c1ccc(O)cc1 | – | – | – | –
